Test results taken from patent US20250064945A1 (Arvinas Operations, Inc., priority 2021, published 2025).

Target: T1, BRM (Homo sapiens, UniProt P51531)
T1 construct: In-Cell Western Screen of BRM Degradation in SW1573 Cells; endogenous in cells; host or cells: SW1573 cells
Test: Western blot / In-Cell Western screen of BRM degradation in SW1573 cells
Type: cell-based
Conditions: overnight (18-20 hours) treatment; for Dmax: read-out: Dmax (%) (% degraded)
Method: Western Blot Screen of BRM Degradation in SW1573 Cells
(§1) To assess BRM degradation (Dmax and DC50) cells were seeded at 8000/well in 96-well black/clear-bottom plates in 180 μL DMEM growth media (containing 1% pen-strep, 1% HEPES and 10% FBS) per well. Plates were incubated overnight to allow adhesion. The next morning cells were treated by adding 20 μL of 10× target compound concentration (1% DMSO) to appropriate wells and returned to incubator for overnight (18-20 hours). The final DMSO concentration was 0.1%.
For lysing, adherent cells were washed once with 100 μL of DPBS. Cells were lysed in 40 μL of 1× RIPA+HALT protease inhibitor on ice for 10 minutes and frozen until use at −80° C. Thawed lysates were cleaned by filtration in 1.2 µm filter plates, or alternatively, were spun clean at 2300 g at 4° C. for 30 minutes.
For blotting, for each Western sample 30 μL of lysate was added to 10 μL of 4×LDS sample buffer, then denatured at 95° C. for 5 minutes in the thermal cycler and placed on ice. Samples were loaded on 4-15% Tris/Glycine gels and run for 25 minutes at 250 constant volts in 1×Tris/Glycine buffer with 4 μL of ladder and 12 μL of each sample loaded for each blot. Protein was transferred from gels to NC with BioRad Turbo dry-transfer unit with the Turbo/midi default program. All blots were rinsed with ddH2O and blocked for 1 hour at room temperature in 5% BSA in TBST (0.1%) on rocker. Blots were exposed to primary antibody in 5% BSA in TBST (0.1%) overnight at 4° C. on rocker (1:1000 for BRM (Cell Signaling Tech. cat #11966) and 1:2000 for alpha-tubulin (Cell Signaling Tech. cat #3873), a control protein. Blot was washed with TBST (0.1%) three times for 5 minutes on rocker at room temperature. Secondary antibody was added, and blots were incubated on a room temperature rocker for 1 hour with 1:18,000 anti-rabbit-HRP and/or anti-mouse-HRP in 5% BSA in TBST (0.1%). Blots were washed three times in TBST (0.1%) for 5 minutes at room temperature on the rocker. Signal was developed with Femto Maximum Sensitivity substrate for 4 minutes and blots read on ChemiDoc™.
In-Cell Western Screen of BRM Degradation in SW1573 Cells
as §1, with “DC50),” for “DC50)”, “10×” for “10× target”, “compound” for “compound concentration”
For processing, the plates were removed from incubator, the media was removed, and immediately 200 μL of cold (4° C.) DPBS was added to all wells. DPBS was then removed, and 50 μL of 4% paraformaldehyde (PFA) in DPBS (4° C.) was added to all wells, and the plates were incubated at room temperature for 20 minutes. PFA was then removed, and 200 μL of TBS-T containing 0.5% Triton X-100 was added to all wells, and the plates were incubated at room temperature for 30 minutes. TBS-T containing 0.5% Triton X-100 was then removed, and 50 μL of Li-Cor blocking solution was added, and the plates were incubated at room temperature for a minimum of one hour. The blocking solution was removed, and 50 μL of Li-Cor blocking solution containing primary antibody cocktail was added (1:1000 for BRM (Cell Signaling Tech. cat #11966) and 1:2000 for alpha-tubulin (Sigma cat #T6074), a control protein. Plates were then placed in cold room until the next day.
The next day plates were washed three times with TBS-T, 200 μL per well. Fifty […] of secondary antibody cocktail in LI-COR blocking solution (anti-rabbit_800 nm and anti-mouse_680 nm) was added to all wells (diluted 1:5000). The plates were incubated at room temperature for at least one hour while protected from light. The plates were washed twice with TBS-T, 200 μL per well. […]

T1 sequence (P51531 whole entry): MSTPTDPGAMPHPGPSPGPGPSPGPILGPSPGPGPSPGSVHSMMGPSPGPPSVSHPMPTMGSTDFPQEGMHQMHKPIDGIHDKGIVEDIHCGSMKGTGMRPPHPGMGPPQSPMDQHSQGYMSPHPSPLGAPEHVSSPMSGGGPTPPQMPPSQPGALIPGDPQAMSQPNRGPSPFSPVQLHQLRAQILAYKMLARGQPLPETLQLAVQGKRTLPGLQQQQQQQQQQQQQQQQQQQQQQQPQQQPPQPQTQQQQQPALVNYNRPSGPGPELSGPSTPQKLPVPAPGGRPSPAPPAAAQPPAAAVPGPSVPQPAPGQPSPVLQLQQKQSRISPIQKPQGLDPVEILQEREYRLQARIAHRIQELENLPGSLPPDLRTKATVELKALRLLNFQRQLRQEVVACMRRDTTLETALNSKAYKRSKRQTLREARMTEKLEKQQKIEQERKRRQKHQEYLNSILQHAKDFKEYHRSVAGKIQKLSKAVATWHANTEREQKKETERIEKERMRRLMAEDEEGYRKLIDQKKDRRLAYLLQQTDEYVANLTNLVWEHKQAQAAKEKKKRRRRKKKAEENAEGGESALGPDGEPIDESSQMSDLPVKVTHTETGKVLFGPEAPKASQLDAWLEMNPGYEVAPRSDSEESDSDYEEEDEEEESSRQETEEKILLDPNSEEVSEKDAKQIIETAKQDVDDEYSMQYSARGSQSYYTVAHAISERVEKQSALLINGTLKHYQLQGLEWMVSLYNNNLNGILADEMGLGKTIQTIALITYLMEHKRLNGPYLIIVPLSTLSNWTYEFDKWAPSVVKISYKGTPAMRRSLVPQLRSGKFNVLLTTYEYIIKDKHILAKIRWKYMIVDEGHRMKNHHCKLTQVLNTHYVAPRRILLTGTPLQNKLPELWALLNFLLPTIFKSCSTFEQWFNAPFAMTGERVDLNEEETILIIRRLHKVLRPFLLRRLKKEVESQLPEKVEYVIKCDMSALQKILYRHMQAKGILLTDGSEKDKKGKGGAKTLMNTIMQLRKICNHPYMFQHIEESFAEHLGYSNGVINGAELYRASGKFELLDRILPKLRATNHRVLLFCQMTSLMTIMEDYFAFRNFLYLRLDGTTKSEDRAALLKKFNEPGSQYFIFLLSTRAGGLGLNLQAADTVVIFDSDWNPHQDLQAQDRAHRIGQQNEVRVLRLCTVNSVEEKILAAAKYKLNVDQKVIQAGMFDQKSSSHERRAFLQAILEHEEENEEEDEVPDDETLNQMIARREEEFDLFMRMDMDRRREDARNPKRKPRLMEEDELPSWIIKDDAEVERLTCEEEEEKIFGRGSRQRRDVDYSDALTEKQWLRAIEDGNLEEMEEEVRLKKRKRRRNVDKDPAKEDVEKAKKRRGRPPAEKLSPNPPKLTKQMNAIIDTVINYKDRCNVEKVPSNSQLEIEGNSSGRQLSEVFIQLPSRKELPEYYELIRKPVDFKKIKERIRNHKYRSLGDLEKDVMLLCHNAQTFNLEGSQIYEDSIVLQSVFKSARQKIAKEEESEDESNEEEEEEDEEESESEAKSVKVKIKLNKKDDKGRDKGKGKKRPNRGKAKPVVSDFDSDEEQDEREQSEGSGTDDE

Row | Compound | DC50 | Dmax
1 | Cc1nccn1-c1ccc([C@H](C)NC(=O)[C@@H]2C[C@@H](O)CN2C(=O)[C@@H](c2cc(OCCN3CCN(CCOc4cc(N5CCN(c6cc(-c7ccccc7O)nnc6N)CC56COC6)ccn4)CC3)no2)C(C)C)cc1 [Compound 20, (2S,4R)-1-[(2R)-2-{3-[2-(4-{2-[(4-{8-[3-amino-6-(2-hydroxyphenyl)pyridazin-4-yl]-2-oxa-5,8-diazaspiro[3.5]nonan-5-yl}pyridin-2-yl)oxy]ethyl}piperazin-1-yl)ethoxy]-1,2-oxazol-5-yl}-3-methylbutanoyl]-4-hydroxy-N-[(1S)-1-[4-(2-methyl-1H-imidazol-1-yl)phenyl]ethyl]pyrrolidine-2-carboxamide] | 2.5 to 10 nM | > 75%
2 | Cc1ncsc1-c1ccc([C@H](C)NC(=O)[C@@H]2C[C@@H](O)CN2C(=O)[C@@H](c2cc(N3CCC(CN4CCC(OCCn5cnc(-c6cn7cc(-c8ccccc8O)nc7nc6N)c5)CC4)CC3)no2)C(C)C)cc1 [Compound 38, (2S,4R)-1-[(2R)-2-[3-(4-{[4-(2-{4-[7-amino-2-(2-hydroxyphenyl)imidazo[1,2-a]pyrimidin-6-yl]-1H-imidazol-1-yl}ethoxy)piperidin-1-yl]methyl}piperidin-1-yl)-1,2-oxazol-5-yl]-3-methylbutanoyl]-4-hydroxy-N-[(1S)-1-[4-(4-methyl-1,3-thiazol-5-yl)phenyl]ethyl]pyrrolidine-2-carboxamide] | 2.5 to 10 nM | > 75%
3 | Cc1ncsc1-c1ccc([C@H](C)NC(=O)[C@@H]2C[C@@H](O)CN2C(=O)[C@@H](c2cc(N3CCC(CN4CCC(O[C@H]5C[C@H](Oc6cc(CC(F)c7cc(-c8ccccc8O)nnc7N)ccn6)C5)CC4)CC3)no2)C(C)C)cc1 (stereo partly drawn) [Compound 2, (2S,4R)-4-hydroxy-N-[(1S)-1-[4-(4-methyl-1,3-thiazol-5-yl)phenyl]ethyl]-1-[(2R)-3-methyl-2-{3-[4-({4-[(1r,3r)-3-[(4-{2-[3-amino-6-(2-hydroxyphenyl)pyridazin-4-yl]-2-fluoroethyl}pyridin-2-yl)oxy]cyclobutoxy]piperidin-1-yl}methyl)piperidin-1-yl]-1,2-oxazol-5-yl}butanoyl]pyrrolidine-2-carboxamide] | 2.5 to 10 nM | > 75%
4 | Cc1cnn(C)c1-c1ccc([C@H](C)NC(=O)[C@@H]2C[C@@H](O)CN2C(=O)[C@@H](c2cc(N3CCC(CN4CCC(O[C@H]5C[C@H](C#Cc6cn7cc(-c8ccccc8O)nc7nc6N)C5)CC4)CC3)no2)C(C)C)cc1 [Compound 40, (2S,4R)-N-[(1S)-1-[4-(1,4-dimethyl-1H-pyrazol-5-yl)phenyl]ethyl]-4-hydroxy-1-[(2R)-3-methyl-2-{3-[4-({4-[(1r,3r)-3-{2-[7-amino-2-(2-hydroxyphenyl)imidazo[1,2-a]pyrimidin-6-yl]ethynyl}cyclobutoxy]piperidin-1-yl}methyl)piperidin-1-yl]-1,2-oxazol-5-yl}butanoyl]pyrrolidine-2-carboxamide] | 2.5 to 10 nM | > 75%
5 | Cc1ncsc1-c1ccc([C@H](C)NC(=O)[C@@H]2C[C@@H](O)CN2C(=O)[C@@H](c2cc(N3CCC(CN4CCC5(CC4)CC(N4CCO[C@@H](CN6CCOC7(CCN(c8cc(-c9ccccc9O)nnc8N)CC7)C6)C4)C5)CC3)no2)C(C)C)cc1 [Compound 26, (2S,4R)-1-[(2R)-2-{3-[4-({2-[(2S)-2-({9-[3-amino-6-(2-hydroxyphenyl)pyridazin-4-yl]-1-oxa-4,9-diazaspiro[5.5]undecan-4-yl}methyl)morpholin-4-yl]-7-azaspiro[3.5]nonan-7-yl}methyl)piperidin-1-yl]-1,2-oxazol-5-yl}-3-methylbutanoyl]-4-hydroxy-N-[(1S)-1-[4-(4-methyl-1,3-thiazol-5-yl)phenyl]ethyl]pyrrolidine-2-carboxamide] | < 2.5 nM | > 75%
6 | Cc1ncsc1-c1ccc([C@H](C)NC(=O)[C@@H]2C[C@@H](O)CN2C(=O)[C@@H](c2cc(N3CCC(CN4CCC(O[C@H]5C[C@H](n6ccnc6CN6C7CCC6CN(c6cc(-c8ccccc8O)nnc6N)C7)C5)CC4)CC3)no2)C(C)C)cc1 [Compound 8, (2S,4R)-4-hydroxy-N-[(1S)-1-[4-(4-methyl-1,3-thiazol-5-yl)phenyl]ethyl]-1-[(2R)-3-methyl-2-{3-[4-({4-[(1r,3r)-3-[2-({3-[3-amino-6-(2-hydroxyphenyl)pyridazin-4-yl]-3,8-diazabicyclo[3.2.1]octan-8-yl}methyl)-1H-imidazol-1-yl]cyclobutoxy]piperidin-1-yl}methyl)piperidin-1-yl]-1,2-oxazol-5-yl}butanoyl]pyrrolidine-2-carboxamide] | < 2.5 nM | > 75%
7 | CC(C)[C@@H](C(=O)N1C[C@H](O)C[C@H]1C(=O)N[C@@H](C)c1ccc(-c2ccnn2C)cc1)c1cc(N2CCC(CN3CCC(O[C@H]4C[C@H](n5cc(-c6cn7cc(-c8ccccc8O)nc7nc6N)cn5)C4)CC3)CC2)no1 [Compound 41, (2S,4R)-4-hydroxy-N-[(1S)-1-[4-(1-methyl-1H-pyrazol-5-yl)phenyl]ethyl]-1-[(2R)-3-methyl-2-{3-[4-({4-[(1r,3r)-3-{4-[7-amino-2-(2-hydroxyphenyl)imidazo[1,2-a]pyrimidin-6-yl]-1H-pyrazol-1-yl}cyclobutoxy]piperidin-1-yl}methyl)piperidin-1-yl]-1,2-oxazol-5-yl}butanoyl]pyrrolidine-2-carboxamide] | < 2.5 nM | > 75%
8 | Cc1ncsc1-c1ccc([C@H](C)NC(=O)[C@@H]2C[C@@H](O)CN2C(=O)[C@@H](c2cc(N3CCC(CN4CCC(O[C@H]5C[C@H](OCC#Cc6cn7cc(-c8ccccc8O)nc7nc6N)C5)CC4)CC3)no2)C(C)C)cc1 [Compound 29] | < 2.5 nM | > 75%
9 | CC(C)[C@@H](C(=O)N1C[C@H](O)C[C@H]1C(=O)N[C@@H](C)c1ccc(-c2c(F)cnn2C)cc1)c1cc(N2CCC(CN3CCC(O[C@H]4C[C@H](C#Cc5cn6cc(-c7ccccc7O)nc6nc5N)C4)CC3)CC2)no1 [Compound 39, (2S,4R)-N-[(1S)-1-[4-(4-fluoro-1-methyl-1H-pyrazol-5-yl)phenyl]ethyl]-4-hydroxy-1-[(2R)-3-methyl-2-{3-[4-({4-[(1r,3r)-3-{2-[7-amino-2-(2-hydroxyphenyl)imidazo[1,2-a]pyrimidin-6-yl]ethynyl}cyclobutoxy]piperidin-1-yl}methyl)piperidin-1-yl]-1,2-oxazol-5-yl}butanoyl]pyrrolidine-2-carboxamide] | < 2.5 nM | > 75%
10 | Cc1ncsc1-c1ccc([C@H](C)NC(=O)[C@@H]2C[C@@H](O)CN2C(=O)[C@@H](c2cc(N3CCC(CN4CCC(O[C@H]5C[C@H](N6CCC(CC#Cc7cn8cc(-c9ccccc9O)nc8nc7N)CC6)C5)CC4)CC3)no2)C(C)C)cc1 [Compound 37, (2S,4R)-4-hydroxy-N-[(1S)-1-[4-(4-methyl-1,3-thiazol-5-yl)phenyl]ethyl]-1-[(2R)-3-methyl-2-{3-[4-({4-[(1r,3r)-3-(4-{3-[7-amino-2-(2-hydroxyphenyl)imidazo[1,2-a]pyrimidin-6-yl]prop-2-yn-1-yl}piperidin-1-yl)cyclobutoxy]piperidin-1-yl}methyl)piperidin-1-yl]-1,2-oxazol-5-yl}butanoyl]pyrrolidine-2-carboxamide] | < 2.5 nM | > 75%
